Experimental data: US11999676B2, “Vesicular monoamine transporter-2 ligands and their use in the treatment of psychostimulant abuse” (priority 2016, dated 2024)
Read-outs that look alike come from different tables or passages of the source.

Columns and labels:
[1] = system: rat striatal slices; settings: cited from earlier work
[2] = in vivo; cited from earlier work
[3] = in vitro; settings: female, Sprague-Dawley, rat, microsomes, pH 7.4, Microsomal stability assays: Clearance
Description: (§2) Each plate holds triplicate samples of two controls (0.4 mM) and up to 14 compounds (0.08 mM) in rat and human liver microsomes. Aliquots of each well of the plate (175 μl of each well) were transferred from the master plate into 5 assay plates. For 0-hr time point, pre-cooled (4° C.) internal standard (437.5 μL, 2 μM caffeine in methanol) was added to the first plate before the reaction starts. NADPH regenerating system solution A (6.05 ml, Fisher Scientific, #NC9255727) was combined with NADPH regenerating system solution B (1.21 ml, Fisher Scientific, #NC9016235) in potassium phosphate buffer (15.8 ml, 0.1 M, pH 7.4, 37° C.). The resulting NADPH solution (43.8 μl) was added to each well of all the 96-well assay plates and mixed with pipette briefly making the final protein and compound concentrations respectively: 0.5 mg/ml, 0.08 μM (0.4 μM for controls). Plates were sealed, and all plates except the 0-hr plate were incubated at 37° C., shaken at a speed of 60 rpm. A single assay plate was tested at each time point: 0.5 hr, 1 hr, 2 hr, and 4 hr. At each time point, 437.5 μL of pre-cooled internal standard was added each well of the plate to quench the reaction. […] 120 μl supernatant was transferred to a 96-well plate, centrifuged again and analyzed by UPLC-MS (Waters Inc., Milford, MA). The compounds and internal standard were detected by selected ion recording (SIR).
(§3) The amount of material was measured as a ratio of peak area to the internal standard and graphed. Using the slope from the initial linear portion of this curve, the degradation rate constant is calculated using equation [1].

[4] = Microsomal stability assay, rat liver microsomes; settings: female, Sprague-Dawley, rat, pH 7.4, Microsomal stability assays: Half-life
Description: as §2, §3

[5] = molecular target: T1, VMAT2 (Rattus norvegicus (Rat), UniProt Q01827); assay: [3H]Dopamine ([3H]DA) uptake assay, vesicular preparation; type: biochemical
[6] = in vitro; settings: both, human, microsomes, pH 7.4, Microsomal stability assays: Clearance
[7] = Microsomal stability assay, human liver microsomes; settings: both, human, pH 7.4, Microsomal stability assays: Half-life
[8] = molecular target: hERG channel (Homo sapiens (Human), UniProt Q12809); assay: [3H]Dofetilide binding assay, HEK-293 cell membrane preparation
[9] = molecular target: T1, VMAT2; settings: rat brain vesicles; read-out: inhibition of [3H]DA uptake into rat brain vesicles via VMAT2 (Ki); cited from earlier work
[10] = molecular target: hERG channel (selectivity at VMAT2 over hERG) (Homo sapiens (Human), UniProt Q12809); assay: [3H]Dofetilide binding assay, HEK-293 cell membrane preparation; settings: human, pH 7.4
[11] = molecular target: dopamine transporter (DAT) (Rattus norvegicus (Rat), UniProt P23977); assay: [3H]DA uptake assay, synaptosomal preparation; type: biochemical
Description: (§1) [^3H]DA and [^3H]5-HT uptake into striatal synaptosomes was determined to evaluate compound inhibition of the dopamine transporter (DAT) and the serotonin transporter (SERT), respectively.

[12] = molecular target: serotonin transporter (SERT) (Rattus norvegicus (Rat), UniProt P31652); assay: [3H]5-HT uptake assay, synaptosomal preparation; type: biochemical
Description: as §1

[13] = system: rats; assay: METH-stimulated locomotor activity in rats; type: in vivo, rat; settings: s.c.
[14] = [3H]DA uptake, rat, read-out: VMAT2 (rat) Inhibition: Mean Ki ± Standard Deviation
[15] = [3H]dofetilide, HEK-293 cell membranes, read-out: hERG Binding: Mean Ki ± Standard Deviation
[16] = [3H]DA uptake (Ki) VMAT2, rat striatal synaptic vesicles

Sequence of hERG channel (Q12809 whole entry): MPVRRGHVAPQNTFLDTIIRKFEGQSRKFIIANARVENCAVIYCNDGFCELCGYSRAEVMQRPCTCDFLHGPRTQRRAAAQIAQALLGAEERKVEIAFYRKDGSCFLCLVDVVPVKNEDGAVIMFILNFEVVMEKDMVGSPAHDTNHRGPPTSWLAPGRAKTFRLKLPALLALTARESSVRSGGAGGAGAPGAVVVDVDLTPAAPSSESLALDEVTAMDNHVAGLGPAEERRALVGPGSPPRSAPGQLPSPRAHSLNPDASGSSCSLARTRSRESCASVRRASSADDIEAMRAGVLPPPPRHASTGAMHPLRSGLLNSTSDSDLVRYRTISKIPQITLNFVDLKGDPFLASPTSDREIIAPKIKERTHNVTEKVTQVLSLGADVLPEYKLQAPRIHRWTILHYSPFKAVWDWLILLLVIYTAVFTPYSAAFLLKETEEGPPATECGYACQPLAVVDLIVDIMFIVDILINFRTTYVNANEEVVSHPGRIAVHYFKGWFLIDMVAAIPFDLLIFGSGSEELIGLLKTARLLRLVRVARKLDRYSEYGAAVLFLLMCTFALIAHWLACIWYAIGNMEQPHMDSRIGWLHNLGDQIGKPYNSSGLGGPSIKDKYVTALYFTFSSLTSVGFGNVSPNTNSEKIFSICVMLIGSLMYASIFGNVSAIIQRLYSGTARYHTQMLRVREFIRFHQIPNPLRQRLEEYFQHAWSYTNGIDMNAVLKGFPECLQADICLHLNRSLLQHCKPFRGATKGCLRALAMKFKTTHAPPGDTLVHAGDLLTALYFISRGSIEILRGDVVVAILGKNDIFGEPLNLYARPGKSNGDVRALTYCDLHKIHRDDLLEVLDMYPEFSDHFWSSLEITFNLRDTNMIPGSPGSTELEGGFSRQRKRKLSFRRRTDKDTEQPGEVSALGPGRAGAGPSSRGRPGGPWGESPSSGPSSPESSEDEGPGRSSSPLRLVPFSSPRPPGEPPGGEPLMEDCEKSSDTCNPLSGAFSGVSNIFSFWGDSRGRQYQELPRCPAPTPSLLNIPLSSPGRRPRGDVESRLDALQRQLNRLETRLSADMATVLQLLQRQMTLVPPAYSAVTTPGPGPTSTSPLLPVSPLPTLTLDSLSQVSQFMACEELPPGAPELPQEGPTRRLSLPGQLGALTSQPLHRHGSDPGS
Sequence of hERG channel (selectivity at VMAT2 over hERG) (Q12809 whole entry): as above

SMILES	CLint scaled at 0.08 µM [3]	half-life at 0.08 µM ([4]; liver microsomes)	Ki [5, 14]	CLint scaled at 0.08 µM [6]	half-life at 0.08 µM ([7]; pooled liver microsomes)	also measured
CN1[C@@H](CCc2ccccc2)CCC[C@H]1CCc1ccccc1 [Lobelane]	–	–	–	–	–	METH-evoked DA overflow [1]: decreases; METH self-administration [2]: decreases
OCC(Cc1ccc(F)cc1)NCCCn1cccn1 (centres unmarked) [Compound 131]	8.34 L/h/kg	18 min	–	–	–	–
OCC(Cc1ccc(F)cc1)NCCCn1cccn1 (centres unmarked) [Compound 130]	–	–	0.634 ± 0.195 µM	2.24 L/h/kg	36 min	–
FCC(Cc1ccc(-c2cccnc2)cc1)NCCCc1ccc(F)cc1 (centres unmarked) [Compound 83]	6.78 L/h/kg	24 min	0.0277 ± 0.0139 µM	–	–	Ki [8, 15]: 6.75 ± 3.62 µM
c1ccc(CC[C@H]2CCC[C@@H](CCc3ccccc3)N2)cc1 [Nor-Lobelane]	–	–	–	–	–	Ki [9]: 0.044 µM
FCC(Cc1ccc(F)cc1)NCCCc1ccncc1 (centres unmarked) [Compound 142]	2.3 L/h/kg	30 min	0.117 ± 0.0187 µM	–	–	–
OCC(Cc1ccc(F)cc1)NCCCc1ccc(Br)cc1 (centres unmarked) [Compound 155]	> 27 L/h/kg	< 6 min	–	–	–	–
FCC(Cc1ccc(-c2cncnc2)cc1)NCCCc1ccc(F)cc1 (centres unmarked) [Compound 69]	4.61 L/h/kg	36 min	–	–	–	–
Nc1ccc(CC(CF)NCCCc2ccc(F)cc2)cc1 (centres unmarked) [Compound 79, [N-3-(4-fluorophenyl)-propan-1-yl]-3-(4-aminophenyl)-1-fluoro-2-propylamine]	1.27 L/h/kg	132 min	0.0198 ± 0.00929 µM	–	–	Ki [8, 15]: 3.44 ± 0.983 µM
O=[N+]([O-])c1ccc(CCCNC(CF)Cc2ccc(F)cc2)cc1 (centres unmarked) [Compound 124]	6.96 L/h/kg	–	–	–	–	half-life at 0.08 µM ([4]; rat liver microsomes): 24 min
CC(Cc1ccc(NC=O)cc1)N(C=O)CCCc1ccccc1 (centres unmarked) [Compound 76]	3.36 L/h/kg	48 min	–	–	–	–
CC(Cc1ccc(NC=O)cc1)N(C=O)CCCc1ccccc1 (centres unmarked) [Compound 75]	–	–	22.7 ± 0.432 µM	7.26 L/h/kg	12 min	–
O=[N+]([O-])c1ccc(CCCNC(CF)Cc2ccc(F)cc2)cc1 (centres unmarked) [Compound 123]	–	–	–	1.09 L/h/kg	–	Ki [8]: 0.223 ± 0.199 µM; half-life at 0.08 µM ([7]; pooled human liver microsomes): 72 min
Fc1ccc(CCCNC(Cc2ccc(F)cc2)C(F)F)cc1 (centres unmarked) [Compound 81]	4.99 L/h/kg	36 min	0.386 ± 0.194 µM	–	–	–
O=CNc1ccc(CC(CF)NCCCc2ccc(F)cc2)cc1 (centres unmarked) [Compound 72]	–	–	0.0164 ± 0.00289 µM	1.59 L/h/kg	48 min	Ki [8, 15]: 0.516 ± 0.0636 µM
O=CNc1ccc(CC(CF)NCCCc2ccc(F)cc2)cc1 (centres unmarked) [Compound 73]	2.62 L/h/kg	66 min	–	–	–	–
Nc1ccc(CC(CF)NCCCc2ccc(F)cc2)cc1 (centres unmarked) [Compound 80, [N-3-(4-fluorophenyl)-propan-1-yl]-3-(4-aminophenyl)-1-fluoro-2-propylamine]	–	–	–	1.77 L/h/kg	42 min	–
OCC(Cc1ccc(F)cc1)NCCCc1ccc(Br)cc1 (centres unmarked) [Compound 154]	–	–	0.0691 ± 0.0136 µM	< 0.312 L/h/kg	> 240 min	–
FCC(Cc1ccc(F)cc1)NCCCc1ccncc1 (centres unmarked) [Compound 143]	–	–	–	5.89 L/h/kg	30 min	–
OCC(Cc1ccc(F)cc1)NCCCc1ccncc1 (centres unmarked) [Compound 129]	–	–	–	< 0.312 L/h/kg	> 240 min	–
COc1ccc(CCCN[C@H](C)Cc2ccccc2)cc1.Cl [Compound 9]	–	–	–	–	–	Ki ([5]; Ki value at VMAT2, text value): 0.00871 ± 0.00365 µM; Ki [5, 16]: 0.0087 ± 0.0065 µM; selectivity ratio at 1 hr [10]: > 30; selectivity at VMAT2 over DAT [11]: > 30 fold; selectivity at VMAT2 over SERT [12]: > 30 fold; METH-stimulated locomotor activity ([13]; 3 mg/kg): significant reduction
FCC(Cc1ccc(F)cc1)NCCCc1ccnc2ccccc12 (centres unmarked) [Compound 148]	> 24 L/h/kg	< 6 min	0.0703 ± 0.013 µM	–	–	Ki [8, 15]: 4.7 ± 0.373 µM
COc1ccc(CCCN[C@@H](C)Cc2ccccc2)cc1.Cl [Compound 10]	–	–	–	–	–	Ki ([5]; Ki value at VMAT2, text value): 0.0255 ± 0.00357 µM; Ki [5, 16]: 0.026 ± 0.0036 µM; selectivity ratio at 1 hr [10]: > 30; selectivity at VMAT2 over DAT [11]: > 30 fold; selectivity at VMAT2 over SERT [12]: > 30 fold; METH-stimulated locomotor activity ([13]; 17 mg/kg): significant reduction
FCC(Cc1ccc(-c2cncnc2)cc1)NCCCc1ccc(F)cc1 (centres unmarked) [Compound 68]	–	–	0.00553 ± 0.000567 µM	> 24 L/h/kg	< 6 min	Ki [8, 15]: 0.633 ± 0.0463 µM
